{"source": "ChEMBL document CHEMBL1144128", "about": "“A new bisabolene epoxide from Tussilago farfara, and inhibition of nitric oxide synthesis in LPS-activated macrophages” (J Nat Prod, 1999)", "key": {"RAW264.7 [1]": {"tested_on": "RAW264.7", "test": "Inhibition of LPS-induced nitric oxide synthesis in mouse RAW264.7 macrophages at 30 uM after 18 hrs of LPS challenge measured after 18 hrs by ELISA relative to LPS-treated control", "type": "functional", "conditions": "RAW264.7, 18 h"}, "RAW264.7 [2]": {"tested_on": "RAW264.7", "test": "Inhibition of LPS-induced nitric oxide synthesis in mouse RAW264.7 macrophages at 30 uM pretreated 18 hrs before arginine challenge assessed after 18 hrs by ELISA relative to LPS-treated control", "type": "functional"}, "RAW264.7 [3]": {"tested_on": "RAW264.7", "test": "Inhibition of LPS-induced nitric oxide synthesis in mouse RAW264.7 macrophages at 30 uM after 18 hrs by ELISA relative to LPS-treated control", "type": "functional", "conditions": "RAW264.7, 18 h"}, "RAW264.7 [4]": {"tested_on": "RAW264.7", "test": "Inhibition of LPS-induced nitric oxide synthesis in mouse RAW264.7 macrophages after 18 hrs by ELISA", "type": "functional, cell-based"}, "RAW264.7 [5]": {"tested_on": "RAW264.7", "test": "Inhibition of LPS-induced nitric oxide synthesis in mouse RAW264.7 macrophages after 18 hrs of LPS challenge measured after 18 hrs by ELISA relative to LPS-treated control", "type": "functional"}, "RAW264.7 [6]": {"tested_on": "RAW264.7", "test": "Inhibition of LPS-induced nitric oxide synthesis in mouse RAW264.7 macrophages at 0.1 uM after 18 hrs of LPS challenge measured after 18 hrs by ELISA relative to LPS-treated control", "type": "functional", "conditions": "RAW264.7, 18 h"}, "RAW264.7 [7]": {"tested_on": "RAW264.7", "test": "Inhibition of LPS-induced nitric oxide synthesis in mouse RAW264.7 macrophages at 0.1 uM pretreated 18 hrs before arginine challenge assessed after 18 hrs by ELISA relative to LPS-treated control", "type": "functional"}, "RAW264.7 [8]": {"tested_on": "RAW264.7", "test": "Inhibition of LPS-induced nitric oxide synthesis in mouse RAW264.7 macrophages at 0.1 uM after 18 hrs by ELISA relative to LPS-treated control", "type": "functional", "conditions": "RAW264.7, 18 h"}}, "note": "pIC50: −log10 of the molar value.", "data": [{"smiles": "C=C(C(CC=C(C)C)OC(=O)/C(C)=C\\C)C1[C@H](OC(C)=O)C(=O)[C@@]2(C)O[C@H]2[C@@H]1OC(C)=O", "note": "(some centres undefined)", "values": [{"measurement": "inhibition at 30 µM", "setting": "RAW264.7 [1]", "result": 11.1, "unit": "%"}, {"measurement": "inhibition at 30 µM", "setting": "RAW264.7 [2]", "result": 68.9, "unit": "%"}, {"measurement": "inhibition at 30 µM", "setting": "RAW264.7 [3]", "result": 71.1, "unit": "%"}, {"measurement": "Activity", "setting": "RAW264.7 [4]", "result": "Dose-dependent effect"}, {"measurement": "pIC50", "setting": "RAW264.7 [4]; RAW264.7, 18 h", "result": 5.05}]}, {"smiles": "N=C(N)NN", "note": "[PIMAGEDINE]", "values": [{"measurement": "inhibition (INH)", "setting": "RAW264.7 [5]", "result": 78.8, "unit": "%"}]}, {"smiles": "CNC(=N)NCCC[C@H](N)C(=O)O", "note": "[TILARGININE]", "values": [{"measurement": "inhibition at 0.1 µM", "setting": "RAW264.7 [6]", "result": 53.3, "unit": "%"}, {"measurement": "inhibition at 0.1 µM", "setting": "RAW264.7 [7]", "result": 25.8, "unit": "%"}, {"measurement": "inhibition at 0.1 µM", "setting": "RAW264.7 [8]", "result": 60.5, "unit": "%"}]}]}
